Source: PubChem BioAssay (NCI)
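Test compounds were applied to cells in 96-well plates for 48 hours at 5 doses. Abbreviation: GI50, concentration required for 50% inhibition of growth. The concentration for full growth arrest is given as TGI.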

Experiments:
Assay in all cases: inhibition of tumour cell growth, NCI panel, 48 h
SR leukemia = tested on: SR leukemia
NCI-H226 lung = tested on: NCI-H226 lung
DMS 273 small cell lung = tested on: DMS 273 small cell lung
OVCAR-3 ovarian = tested on: OVCAR-3 ovarian
SN12C renal = tested on: SN12C renal
NCI-H460 lung = tested on: NCI-H460 lung
SF-295 CNS = tested on: SF-295 CNS
MALME-3M melanoma = tested on: MALME-3M melanoma
OVCAR-4 ovarian = tested on: OVCAR-4 ovarian
HCT-116 colon = tested on: HCT-116 colon
LXFL 529 NSCLC = tested on: LXFL 529 NSCLC
DLD-1 colon = tested on: DLD-1 colon
HOP-62 NSCLC = tested on: HOP-62 NSCLC
MDA-MB-435 = tested on: MDA-MB-435

| SMILES | TGI (SR leukemia) | TGI (NCI-H226 lung) | TGI (DMS 273 small cell lung) | TGI (OVCAR-3 ovarian) | TGI (SN12C renal) | TGI (NCI-H460 lung) | TGI (SF-295 CNS) | TGI (MALME-3M melanoma) | TGI (OVCAR-4 ovarian) | TGI (HCT-116 colon) | TGI (LXFL 529 NSCLC) | TGI (DLD-1 colon) | TGI (HOP-62 NSCLC) | TGI (MDA-MB-435) | GI50 (DMS 273 small cell lung) | GI50 (DLD-1 colon) |
| --- | --- | --- | --- | --- | --- | --- | --- | --- | --- | --- | --- | --- | --- | --- | --- | --- |
| CCCCCCCC/C=C\CCCCCCCC(=O)NCCN(CCN)C(=O)CCCCCCC/C=C\CCCCCCCC | > 100 µM | > 100 µM | > 100 µM | > 100 µM | > 100 µM | > 100 µM | > 100 µM | > 100 µM | > 100 µM | > 100 µM | > 100 µM | > 100 µM | > 100 µM | – | – | – |
| O=C(O)CC/C(=N\Nc1nsc2ccccc12)c1ccc(Cl)cc1 | – | > 100 µM | 41.2 µM | 47.2 µM | 57.7 µM | > 81.5 µM | > 100 µM | > 100 µM | > 80.2 µM | 68.9 µM | 41.1 µM | – | > 63.5 µM | 75.3 µM | – | – |
| COc1ccc([C@H]2CC(=O)NCCCCN2)cc1 | > 100 µM | > 100 µM | > 100 µM | – | > 100 µM | > 100 µM | > 100 µM | > 100 µM | > 100 µM | > 100 µM | > 100 µM | > 100 µM | > 100 µM | – | – | – |
| O=[N+]([O-])O.[Ga] | > 10000 µM | 9510 µM | 6900 µM | 6920 µM | 6890 µM | 8990 µM | 1240 µM | 1320 µM | 5040 µM | > 10000 µM | – | > 10000 µM | 1960 µM | > 10000 µM | 470 µM | 3500 µM |
| CC(C)n1c2c([n+](C)c1/C=C/c1ccccc1)C(=O)c1ccccc1C2=O | > 21 µM | 2.2 µM | 0.341 µM | 0.0289 µM | 0.169 µM | 2.43 µM | 2.52 µM | 0.248 µM | 1 µM | 0.433 µM | 0.788 µM | 3.79 µM | 1.61 µM | 0.547 µM | – | – |
| COc1ccc2c(c1)OC[C@@H]1c3cc4c(cc3O[C@H]21)OCO4 | – | > 100 µM | > 100 µM | > 100 µM | – | > 100 µM | > 100 µM | > 100 µM | > 100 µM | > 100 µM | > 100 µM | > 100 µM | > 100 µM | – | – | – |
| COP1(=O)Oc2ccccc2C(=O)C(C(F)(F)F)(C(F)(F)F)O1 (stereo not drawn) | > 100 µM | – | > 100 µM | – | > 100 µM | > 100 µM | > 100 µM | – | > 100 µM | > 100 µM | > 100 µM | > 100 µM | > 100 µM | – | – | – |
| COc1cc2c(c3c1c(=O)c1ccccc1n3C)C=CC1(CCCCC1)O2 | 6.39 µM | > 10 µM | – | > 10 µM | > 10 µM | > 10 µM | 4.7 µM | > 10 µM | > 10 µM | > 10 µM | – | – | > 9.54 µM | 6.42 µM | – | – |
